Assay results from US7932281B2, “Amine-based compound and use thereof” (Kureha Corporation, priority 2004, dated 2011).

Key:
CXCR4 = target: T1, CXCR4 (Homo sapiens, UniProt P61073); assay: Inhibition of 125I-SDF-1α binding to receptors CXCR4 on MT-4 cells (Test Example 2); settings: binding-inhibition % at 0.01 μM, 2 hours under ice-cooling, read-out: Inhibition rate (%)
T1 construct: endogenous in cells; host or cells: MT-4 cells
Experimental: MT-4 cells (5×10^6/0.2 ml/well) were cultured on a 24-well microtiter plate. After the cells were incubated for 24 hours at 37° C. in a carbon dioxide gas incubator, a culture medium was replaced with a buffer solution (0.1% BSA-containing RPMI-1640). Together with a ligand ^125I-SDF-1α (specific activity: 2,200 Ci/mmol; available from Daiichi Pure Chemicals Co., Ltd. (Tokyo)), test materials with various concentrations were subjected to a binding reaction for 2 hours under ice-cooling. […] Then, a rate of inhibition of the binding between radioactive ligands and receptors CXCR4 by a test material was calculated (a binding-inhibition % at 0.01 μM).

[1] = tested on: HIV-1IIIB infected MT-4 cells; assay: Anti-HIV activity, HIV-1IIIB infected MT-4 cells, MTT method (Test Example 1); type: cell-based; settings: Human immunodeficiency virus 1, MT4, 120 h, concentration required for inhibition of cell disorder due to HIV infection by 50%, MOI 0.01, 5 days
Experimental: Immediately after infection, HIV-1IIIB infected MT-4 cells (3.0×10^4/well, MOI (Multiplicity of infection): 0.01) were added to a 96-well microtiter plate together with the test compounds having different concentrations. The cells were cultured in a carbon dioxide incubator at 37° C. for 5 days, and the number of living cells was measured in accordance with the MTT (tetrazolium) method ([…], et al., J. of Virol. Method, 20, 309-321 […]). The antiviral activity is represented by the concentration required for inhibition of cell disorder due to HIV infection by 50% (EC50: 50% Effective Concentration) (μM), and the results are shown in Table 2.

SD mice = assay: Acute toxicity, single transvenous administration (Test Example 3); type: in vivo; settings: 6-week-old male SD mice, 2.5 mg/kg transvenously once in physiological saline
Experimental: The aforementioned compound was examined for acute toxicity. Specifically, 6-week-old SD mice (male) were divided into several groups (2 to 3 mice in each group). Subsequently, each of the compounds of Examples was dissolved in a physiological saline solution, and the solution was transvenously administered to the mice (dose: 2.5 mg/kg) once. Then, the number of dead mice was counted.

T1 sequence (P61073 whole entry): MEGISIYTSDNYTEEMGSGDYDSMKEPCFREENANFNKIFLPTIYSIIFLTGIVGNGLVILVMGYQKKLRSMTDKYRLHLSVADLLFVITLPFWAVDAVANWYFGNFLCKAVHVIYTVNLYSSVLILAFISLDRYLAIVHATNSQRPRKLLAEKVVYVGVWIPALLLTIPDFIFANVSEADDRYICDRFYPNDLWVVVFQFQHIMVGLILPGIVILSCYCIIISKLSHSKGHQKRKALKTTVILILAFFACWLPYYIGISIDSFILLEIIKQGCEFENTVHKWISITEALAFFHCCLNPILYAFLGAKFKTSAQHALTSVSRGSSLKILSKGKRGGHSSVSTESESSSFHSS

Row | Structure (SMILES) | inhibition at 0.01 µM (CXCR4) | EC50 [1] | Dead mice/test mice (SD mice)
1 | CCCN(CCC)CCCCN(CCO)Cc1ccc(CN(Cc2ncc[nH]2)Cc2nccn2C)cc1 [Compound No. 1, 2-[(4-dipropylamino-butyl)-(4-{[(1H-imidazol-2-ylmethyl)-(1-methyl-1H-imidazol-2-ylmethyl)-amino]-methyl}-benzyl)-amino]-ethanol] | 87.9% | 3 nM | 0/3
2 | CCCN(CCC)CCCCc1nc2ccc(CN(Cc3ncc[nH]3)Cc3ncc[nH]3)cc2n1CCC [Compound No. 3, [4-(6-{[bis-(1H-imidazol-2-ylmethyl)-amino]-methyl}-1-propyl-1H-benzimidazol-2-yl)-butyl]-dipropyl-amine] | 71.4% | 3 nM | 0/3
3 | CCCN(CCC)CCCCc1nc2ccc(CN(Cc3ncc[nH]3)Cc3nccn3C)cc2n1CCC [Compound No. 4, [4-(6-{[(1H-imidazol-2-ylmethyl)-(1-methyl-1H-imidazol-2-ylmethyl)-amino]-methyl}-1-propyl-1H-benzimidazol-2-yl)-butyl]-dipropyl-amine] | 94.9% | 3 nM | 0/3
4 | CCCN(CCC)CCCCc1nc2cc(CN(Cc3ncc[nH]3)Cc3nccn3C)ccc2n1CCC [Compound No. 5, [4-(5-{[(1H-imidazol-2-ylmethyl)-(1-methyl-1H-imidazol-2-ylmethyl)-amino]-methyl}-1-propyl-1H-benzimidazol-2-yl)-butyl]-dipropyl-amine] | 67% | 9 nM | 0/3
5 | CCCN(CCC)CCCCN(C)Cc1ccc(CNCc2nccn2Cc2nccn2C)cc1 [Compound No. 10] | 20.4% | 9 nM | 0/3
6 | CCCN(CCC)CCCCc1nc2ccc(CN(Cc3ncc[nH]3)Cc3nccn3C)cc2n1C [Compound No. 13, [4-(6-{[(1H-imidazol-2-ylmethyl)-(1-methyl-1H-imidazol-2-ylmethyl)-amino]-methyl}-1-methyl-1H-benzimidazol-2-yl)-butyl]-dipropyl-amine] | 75.5% | 3 nM | 0/3
7 | CCCN(CCC)CCCC1NC(=O)c2ccc(CN(Cc3ncc[nH]3)Cc3nccn3C)cc2NC1=O (stereo not shown) [Compound No. 14, 3-(3-dipropylaminopropyl)-8-{[(1H-imidazol-2-ylmethyl)-(1-methyl-1H-imidazol-2-ylmethyl)-amino]-methyl}-3,4-dihydro-1H-benzo[e][1,4]diazepin-2,5-dione] | 32.9% | 6 nM | 0/3
8 | CCCN(CCC)Cc1ccc(NC(=O)c2ccc(CN(Cc3ncc(C)cc3C)Cc3nccn3C)cc2)cc1 [Compound No. 15, 4-{[(3,5-dimethyl-pyridin-2-ylmethyl)-(1-methyl-1H-imidazol-2-ylmethyl)-amino]-methyl}-N-(4-dipropylaminomethyl-phenyl)-benzamide] | 74% | 6 nM | 0/3
9 | CCCN(CCC)Cc1ccc(NC(=O)c2ccc(CN(Cc3ccc(CC)cn3)Cc3nccn3C)cc2)cc1 [Compound No. 16, 4-{[(5-ethyl-pyridin-2-ylmethyl)-(1-methyl-1H-imidazol-2-ylmethyl)-amino]-methyl}-N-(4-dipropylaminomethyl-phenyl)-benzamide] | 46.9% | 3 nM | 0/3
10 | CCCN(CCC)CCCCN1CCc2cc(CN(Cc3ncc[nH]3)Cc3nccn3C)ccc2C1 [Compound No. 17, [4-(6-{[(1H-imidazol-2-ylmethyl)-(1-methyl-1H-imidazol-2-ylmethyl)-amino]-methyl}-3,4-dihydro-1H-isoquinolin-2-yl)-butyl]-dipropyl-amine] | 93.5% | 3 nM | 0/3
11 | CCCN(CCC)CCCCNC(=O)c1ccc(CN(Cc2ccc(C)cn2)Cc2nccn2C)cc1 [Compound No. 20, N-(4-dipropylamino-butyl)-4-{[(1-methyl-1H-imidazol-2-ylmethyl)-(5-methyl-pyridin-2-ylmethyl)-amino]-methyl}-benzamide] | 73.2% | 4 nM | 0/3
12 | CCCN(CCC)CCCCN(Cc1ccc(CN(Cc2ncc[nH]2)Cc2nccn2C)cc1)S(C)(=O)=O [Compound No. 21, N-(4-dipropylamino-butyl)-N-(4-{[(1H-imidazol-2-ylmethyl)-(1-methyl-1H-imidazol-2-ylmethyl)-amino]-methyl}-benzyl)-methanesulfonamide] | 59.2% | 46 nM | 0/3
13 | CCCN(CCC)CCCCN(Cc1ccc(CN(Cc2ncc[nH]2)Cc2nccn2C)cc1)S(=O)(=O)c1ccc(C)cc1 [Compound No. 22, N-(4-dipropylamino-butyl)-N-(4-{[(1H-imidazol-2-ylmethyl)-(1-methyl-1H-imidazol-2-ylmethyl)-amino]-methyl}-benzyl)-4-methyl-benzenesulfonamide] | 84.3% | 106 nM | 0/3
14 | CCCN(CCC)CCCCN(CC)Cc1ccc(CN(Cc2ncc[nH]2)Cc2nccn2C)cc1 [Compound No. 23, N-ethyl-N-(4-{[(1H-imidazol-2-ylmethyl)-(1-methyl-1H-imidazol-2-ylmethyl)-amino]-methyl}-benzyl)-N′,N′-dipropyl-butane-1,4-diamine] | 78.2% | 3 nM | 0/3
15 | CCCN(CCC)CCCCN(Cc1ccc(CN(Cc2ncc[nH]2)Cc2nccn2C)cc1)c1ccccc1 [Compound No. 24, N-(4-{[(1H-imidazol-2-ylmethyl)-(1-methyl-1H-imidazol-2-ylmethyl)-amino]-methyl}-benzyl)-N-phenyl-N′,N′-dipropyl-butane-1,4-diamine] | 50.1% | 95 nM | 0/3
16 | CCCN(CCC)CCCCN(C)C(=O)Nc1ccc(CN(Cc2ncc[nH]2)Cc2nccn2C)cc1 [Compound No. 26, 1-(4-dipropylamino-butyl)-3-(4-{[(1H-imidazol-2-ylmethyl)-(1-methyl-1H-imidazol-2-ylmethyl)-amino]-methyl}-phenyl)-1-methyl-urea] | 57.3% | 73 nM | 0/3
17 | CCCN(CCC)CCCCN(C)C(=O)N(C)c1ccc(CN(Cc2ncc[nH]2)Cc2nccn2C)cc1 [Compound No. 27, 1-(4-dipropylamino-butyl)-3-(4-{[(1H-imidazol-2-ylmethyl)-(1-methyl-1H-imidazol-2-ylmethyl)-amino]-methyl}-phenyl)-1,3-dimethyl-urea] | 43.4% | 230 nM | 0/3
18 | CCCN(CCC)CCOCCN(C)Cc1ccc(CN(Cc2ncc[nH]2)Cc2nccn2C)cc1 [Compound No. 109, (2-{2-[(4-{[(1H-imidazol-2-ylmethyl)-(1-methyl-1H-imidazol-2-ylmethyl)-amino]-methyl}-benzyl)-methyl-amino]-ethoxy}-ethyl)-dipropyl-amine] | 94.3% | 4 nM | –
19 | CCCN(CCC)CCCCN(Cc1ccc(CN(Cc2ncc[nH]2)Cc2nccn2C)cc1)Cc1nnn[nH]1 [Compound No. 110, N-(4-{[(1H-imidazol-2-ylmethyl)-(1-methyl-1H-imidazol-2-ylmethyl)-amino]-methyl}-benzyl)-N′,N′-dipropyl-N-(1H-tetrazol-5-ylmethyl)-butane-1,4-diamine] | 71.4% | 4 nM | –
20 | CCCN(CCC)CCCCN(C)C(C(=O)OCC)c1ccc(CN(Cc2ncc[nH]2)Cc2nccn2C)cc1 (stereo not shown) [Compound No. 119, [(4-dipropylamino-butyl)-methyl-amino]-(4-{[(1H-imidazol-2-ylmethyl)-(1-methyl-1H-imidazol-2-ylmethyl)-amino]-methyl}-phenyl)-acetic acid ethyl ester] | 72.7% | 4 nM | –
21 | CCCN(CCC)CCCCN(C)C(C(=O)O)c1ccc(CN(Cc2ncc[nH]2)Cc2nccn2C)cc1 (stereo not shown) [Compound No. 120, [(4-dipropylamino-butyl)-methyl-amino]-(4-{[(1H-imidazol-2-ylmethyl)-(1-methyl-1H-imidazol-2-ylmethyl)-amino]-methyl}-phenyl)-acetic acid] | 79.7% | 4 nM | –
22 | CCCN(CCC)CCCCN(C)Cc1ccc(CN(Cc2ncc[nH]2)Cc2nccn2C)cc1C(=O)O [Compound No. 122, 2-{[(4-dipropylamino-butyl)-methyl-amino]-methyl}-5-{[(1H-imidazol-2-ylmethyl)-(1-methyl-1H-imidazol-2-ylmethyl)-amino]-methyl}-benzoic acid] | 71.3% | 4 nM | –
